Solubility data for one compound are collected here from patent US11034673B2, “(S)-N-(3-(6-isopropoxypyridin-3-yl)-1H-indazol-5-yl)-1-(2-(4-(4-(1-methyl-1H-1,2,4-triazol-3-yl)phenyl)-3,6-dihydropyridin-1(2H)-yl)-2-oxoethyl)-3-(methylthio)pyrrolidine-3-carboxamide compositions for pharmaceutical preparations” (Merck Sharp & Dohme Corp., priority 2014, dated 2021).

A short description of this series: solubility of crystalline form. The class given is physicochemical.

On to `CS[C@@]1(C(=O)Nc2ccc3[nH]nc(-c4ccc(OC(C)C)nc4)c3c2)CCN(CC(=O)N2CC=C(c3ccc(-c4ncn(C)n4)cc3)CC2)C1` [crystalline hydrate Form 2, (S)—N-(3-(6-isopropoxypyridin-3-yl)-1H-indazol-5-yl)-1-(2-(4-(4-(1-methyl-1H-1,2,4-triazol-3-yl)phenyl)-3,6-dihydropyridin-1(2H)-yl)-2-oxoethyl)-3-(methylthio)pyrrolidine-3-carboxamide], for which the solubility result was “poor solubility”.
